Laboratory results taken from patent publication US12017974B2, “Adamantanecarboxylic acid benzyl amide derivative compound and skin whitening composition comprising same” (AMOREPACIFIC CORPORATION, priority 2019, dated 2024).

Tested on: B16F10 (malignant melanoma cells)
Experiment: Effect of inhibiting melanin formation in melanocytes (Dooley method)
Assay type: cell-based
Conditions: Mus musculus, B16-F10, 72 h; mice-derived B16F10 cells; treated continuously for 3 days; melanin dissolved in 1 N NaOH, absorbance at 405 nm; read-out: Inhibition of melanin formation IC50
Experimental: Each of the amide derivative compounds according to Examples was determined in terms of the effect of inhibiting melanin formation in melanocytes by using the Dooley method. As a cell line, a mice-derived B16F10 (malignant melanoma cells) available from Korean Cell Line Bank was used. In addition, DMEM (Cat No. 11195), FBS (Cat No. 16000-044) and antibiotic-antifungal agent (Cat No. 15240-062) required for culturing cells were purchased from Invitrogen (GIBCO). The cell line was cultured at 37° C. under 5% CO2. The cultured B16F10 cells were stripped off with 0.05% trypsin-EDTA, the same number of cells (1×10^4 cells/well) was inoculated into a 48-well plate, and then the medium was exchanged with a medium containing 10 ppm of each Example continuously for 3 days from the next day. As a positive control, kojic acid and 5-adamantan-1-yl-N-(2,4-dihydroxybenzyl)-2,4-dimethoxybenzamide were used. After the fifth day, the cells were treated with 1 N NaOH to carry out reaction at 60° C. for 2 hours so that melanin contained in the cells might be dissolved, and then the amount of melanin was measured by determining the absorbance at 405 nm. Then, the concentration (IC50) of each Example required for reducing melanin formation by half in melanocytes was calculated.

SMILES	IC50 [µM]
COc1cc(OC)c(C23CC4CC(CC(C4)C2)C3)cc1C(=O)NCc1ccc(O)cc1O [5-adamantan-1-yl-N-(2,4-dihydroxybenzyl)-2,4-dimethoxybenzamide, reference compound]	1.1
O=C(NCc1ccc(O)cc1O)C12CC3CC(CC(C3)C1)C2 [Example 1, Adamantane-1-Carboxylic Acid 2,4-Dihydroxybenzylamide]	15.1
O=C(NCc1ccc(O)c(O)c1)C12CC3CC(CC(C3)C1)C2 [Example 2, Adamantane-1-Carboxylic Acid 3,4-Dihydroxybenzylamide]	0.02
O=C(NCc1cc(O)cc(O)c1)C12CC3CC(CC(C3)C1)C2 [Example 3, Adamantane-1-Carboxylic Acid 3,5-Dihydroxybenzylamide]	20.6
O=C(NCc1cc(O)ccc1O)C12CC3CC(CC(C3)C1)C2 [Example 4, Adamantane-1-Carboxylic Acid 2,5-Dihydroxybenzylamide]	1.43
O=C(NCc1ccc(O)cc1)C12CC3CC(CC(C3)C1)C2 [Example 5, Adamantane-1-Carboxylic Acid 4-Hydroxybenzylamide]	11.1
O=C(NCc1cccc(O)c1)C12CC3CC(CC(C3)C1)C2 [Example 6, Adamantane-1-Carboxylic Acid 3-Hydroxybenzylamide]	0.48
O=C(NCc1ccccc1O)C12CC3CC(CC(C3)C1)C2 [Example 7, Adamantane-1-Carboxylic Acid 2-Hydroxybenzylamide]	2.36
O=c1cc(CO)occ1O [Kojic acid, reference compound]	500
